Measurements reported in patent US20250122250A1, “AUXIN-DEGRON SYSTEM KIT AND USE THEREFOR” (Inter-University Research Institute Corporation Research …, priority 2021, published 2025).
Values belong to the molecule of their own block, whether it stands above or below them.

Columns and labels:
AtTIR1 = target: T1, AtTIR1 (Arabidopsis thaliana, UniProt Q570C0, D170E/M473L); assay: AID*::GFP reporter level in second generation larvae expressing AtTIR1, grown on ligand plates; format: in vivo; details: combined with AtTIR1, larvae treated for one generation; read-out: estimated DC50 value (ligand concentrations required for 50% degradation)
T1 construct: expressed in transfected cells; host or cells: transgenic C. elegans (larvae)
T1 sequence (G5ECU1 whole entry): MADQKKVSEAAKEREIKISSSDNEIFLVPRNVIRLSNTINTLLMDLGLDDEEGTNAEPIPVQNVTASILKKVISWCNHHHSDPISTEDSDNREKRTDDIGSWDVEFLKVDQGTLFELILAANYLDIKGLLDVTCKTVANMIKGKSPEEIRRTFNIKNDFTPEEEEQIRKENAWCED
T1 sequence (Q570C0 whole entry D170E/M473L): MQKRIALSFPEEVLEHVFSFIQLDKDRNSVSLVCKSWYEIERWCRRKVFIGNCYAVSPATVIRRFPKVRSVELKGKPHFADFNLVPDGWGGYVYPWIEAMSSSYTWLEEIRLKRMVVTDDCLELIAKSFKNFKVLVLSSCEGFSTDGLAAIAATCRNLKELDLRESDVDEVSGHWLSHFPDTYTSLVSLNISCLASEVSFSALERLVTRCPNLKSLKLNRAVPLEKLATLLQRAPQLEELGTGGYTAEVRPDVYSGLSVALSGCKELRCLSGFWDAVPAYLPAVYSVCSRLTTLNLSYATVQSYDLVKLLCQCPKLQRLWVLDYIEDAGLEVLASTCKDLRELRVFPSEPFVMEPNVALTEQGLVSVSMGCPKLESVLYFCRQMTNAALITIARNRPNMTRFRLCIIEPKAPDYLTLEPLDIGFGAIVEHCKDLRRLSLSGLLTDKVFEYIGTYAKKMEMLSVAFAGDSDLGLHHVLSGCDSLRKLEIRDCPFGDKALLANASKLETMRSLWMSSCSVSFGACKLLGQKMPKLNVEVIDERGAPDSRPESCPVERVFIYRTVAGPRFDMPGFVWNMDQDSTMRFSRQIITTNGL
T1 sequence (P93830 71-114, further chain): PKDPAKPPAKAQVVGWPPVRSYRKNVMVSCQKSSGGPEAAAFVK
Description: (§1) Next, L1 larvae were grown on plates including ligands at different concentrations. The intensity of the AID*::GFP reporter of larvae (second generation) born from adults was monitored.
(§2) Furthermore, the efficacy of the AID2 system in adults was tested.

[1] = target: AID*::GFP (Arabidopsis thaliana)
[2] = target: AID*::GFP (Arabidopsis thaliana); remark: listed apart in the source
[3] = target: AID*::GFP (Arabidopsis thaliana); remark: listed apart in the source
nematodes = assay: number of progeny of L1 larvae grown in the presence of ligand; format: in vivo, C. elegans; details: 5 μM 5-Ph-IAA, L1 larvae expressing AID*::GFP with AtTIR1 (F79G)
Description: Next, in order to confirm that 5-Ph-IAA is safer than IAA against nematodes, L1 larvae expressing AID*::GFP were each grown with AtTIR1 or AtTIR1 (F79G) in the presence of 1 mM IAA or 5 μM 5-Ph-IAA.

AtTIR1 (F79G) [4] = target: T2, AtTIR1 (F79G) (Arabidopsis thaliana, UniProt Q570C0, D170E/F79G/M473L); format: in vivo; parameters: expressed in transfected cells; host or cells: transgenic C. elegans (CRISPR-Cas9 knock-in at the ttTi5605 locus; larvae, adults, embryos)
T2 sequence (Q570C0 whole entry F79G/D170E/M473L): as the sequence (Q570C0 whole entry D170E/M473L) above, with F79G counted along it
T2 sequence (G5ECU1 whole entry, further chain): as the sequence (G5ECU1 whole entry) above
T2 sequence (P93830 71-114, further chain): as the sequence (P93830 71-114, further chain) above
Description: as §1, §2

AtTIR1 (F79G) [5] = target: T2, AtTIR1 (F79G); assay: AID*::GFP reporter degradation in adult nematodes expressing AtTIR1 (F79G); format: in vivo; parameters: expressed in transfected cells; host or cells: transgenic C. elegans (CRISPR-Cas9 knock-in at the ttTi5605 locus; larvae, adults, embryos); details: 5 μM 5-Ph-IAA for 4 hours
Description: as §2

AtTIR1 (F79G) [6] = target: T2, AtTIR1 (F79G); assay: AID*::GFP reporter degradation in embryos expressing AtTIR1 (F79G)::mRuby; format: in vivo; parameters: expressed in transfected cells
Description: Rapid removal of the target in the embryos is useful for analyzing a role of a protein in embryogenesis. Initially, 5-Ph-IAA was used to test the efficacy of protein removal in embryos. An egg-planting embryo expressing AtTIR1 (F79G)::mRuby and AID*::GFP was placed in a droplet of an M9 buffer including 50 μM 5-Ph-IAA, and then the reporter intensity was monitored (see FIG. 4A).
An egg-planting embryo expressing AtTIR1 (F79G)::mRuby and AID*::GFP was placed in a droplet of an M9 buffer including 50 μM 5-Ph-IAA-AM, and then the reporter intensity was monitored (see FIG. 4D).

Molecule: O=C(O)Cc1c[nH]c2ccccc12 [IAA]
DC50 (AtTIR1): 59 µM

half-life of the AID*::GFP reporter level in larvae treated with 1 mM IAA [1]: 16.8 min | intensity of AID*::GFP in larvae, no ligand added (basal degradation) [2]: 73% | DC50 (ligand concentration required for 50% degradation) of IAA, AID*::GFP reporter in larvae treated for one generation [3]: 59 µM
Molecule: AtTIR1::mRuby

half-life of the AID*::GFP reporter level in larvae treated with 5 µM 5-Ph-IAA [1]: 15.5 min | DC50 (ligand concentration required for 50% degradation) of 5-Ph-IAA, AID*::GFP reporter in larvae treated for one generation [3]: 0.0045 µM
Molecule: AtTIR1 (F79G)::mRuby

Molecule: O=C(O)Cc1c[nH]c2ccc(-c3ccccc3)cc12 [5-Ph-IAA, 5-phenylindole-3-acetic acid]
number of progeny (nematodes): showed no difference | AID*::GFP reporter expression in second generation larvae (AtTIR1 (F79G) [4]; 5.0 μM 5-Ph-IAA, among different ligand concentrations): lowest reporter expression | ligand concentration required, times lower than that of the AID system (IAA with AtTIR1) (AtTIR1 (F79G) [4]; long-term treatment, AID2 system vs AID system): about 1,300 times | DC50 (AtTIR1 (F79G) [4]; read-out: estimated DC50 value (ligand concentrations required for 50% degradation), combined with AtTIR1 (F79G), larvae treated for one generation): 0.0045 µM | AID*::GFP reporter in adults (AtTIR1 (F79G) [5]): a loss of the reporter was observed | time at which degradation of the reporter reached the maximum (AtTIR1 (F79G) [6]; 50 μM 5-Ph-IAA, embryos): 15 to 30 min | embryos with rapid decrease of fluorescence intensity (AtTIR1 (F79G) [6]; 50 μM in M9 buffer, 18/23 embryos): 78% | embryos with rapid decrease of fluorescence intensity (AtTIR1 (F79G) [6]; 100 μM, 16/20 embryos): 80%

Molecule: CC(=O)OCOC(=O)Cc1c[nH]c2ccc(-c3ccccc3)cc12 [5-Ph-IAA-AM, 5-phenylindole 3-acetic acid acetoxymethyl ester]
degradation of AID*::GFP reporter in embryos (AtTIR1 (F79G) [6]; 50 μM 5-Ph-IAA-AM in M9 buffer): rapid degradation in all embryos
